The values below come from US9562035B2, “Benzamide derivative useful as FASN inhibitors for the treatment of cancer” (Janssen Pharmaceutica NV, priority 2013, dated 2017).

Assay type in all cases: cell-based
Assay [1] deals with A2780 ovarian cells. As to the kind of experiment: A2780 Ovarian Cell Proliferation Assay in Lipid Reduced Medium, without Palmitate. Conditions: Homo sapiens. An outline of the steps: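 A2780 cells were seeded in 10% FCS medium and switched next day to 10% lipid-reduced serum without palmitate. Compounds at 0.01–30 μM were added with 0.2% DMSO, 0.2% fatty-acid-free BSA and 0.25% ethanol final. After 96 h, MTT absorbance at 544 nm was normalized to plate controls, and IC50/pIC50 came from a 4-parameter logistic fit.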

The test system of assay [2] is PC-3M-Luc-C6 prostate cells. The experiment in a line: In Vitro PC-3M-Luc-C6 Prostate Cell Proliferation Assay in Lipid Reduced Medium. Conditions: read-out: PC-3M-Luc-C6 Cells pIC50 (μM) (converted), lipid reduced serum, 96 h. The protocol:
PC-3M-Luc-C6 prostate cells were obtained from Xenogen Corporation. Cells were maintained in MEM supplemented with 10% Fetal Calf Serum (FCS, Hyclone), 2 mM glutamine, 1 mM sodium pyruvate, 1% BME vitamins (available from for example, Sigma Aldrich), 0.1 mM non Essential Amino Acid and 50 μg/ml Gentamicin. The cells were passaged twice a week.
1000 PC-3M-Luc-C6 prostate cells (Xenogen) were seeded in a 384-well black with clear bottom plate (costar 3712BC) in 40 μl MEM, 10% LRS (Hyclo ne), 50 μg/ml Gentamicin, 2 mM Glutamine, 1 mM Sodium pyruvaat, 1% BME vitamins and 0.1 mM non Essential Amino Acid and incubated at 37° C., 5% CO2. The next day 10 μl test compound/DMSO diluted in medium was added (3E-5M, 1E-5M, 3E-6M, 1E-6M, 3E-7M, 1E-7M, 3E-8M, 1E-8M final concentration). Compounds were tested in duplicate. After 96 h incubation at 37° C., 5% CO2 25 μl ATP-glow mix was added. The plate was incubated for 30 min at 37° C. and luminescence was measured with the Envision.
(§1) pIC50 values were calculated as follows. Raw data generated by the instruments were normalized to % Controlmin values, which were calculated as: % Controlmin=100*(x−mLC)/(mHC−mLC),
(§2) where mLC and mHC are the means of the low control wells and high control wells on the plate, after manual exclusion of outliers. The relation between the % Controlmin values and concentration was fitted to a 4-parameter logistic curve using a non-linear least squares regression method to determine the pIC50 value. Outlying data points were excluded manually to get a correct fit. The pIC50 corresponds to −log 10(IC50), if the IC50 is expressed in molar units (http://www.ncbi.nlm.nih.gov/books/NBK91994). The IC50 parameter was always determined by non-linear regression, but one or more of the other parameters may have been held fixed on a relevant input value, such as 0 for the bottom values.
(§3) For dose response curves with FASN inhibitors in LNCaP_Vancouver or PC-3M-Luc_C6 cells the curves bottom out around 30 to 40% of the control value. A standard fit PL2, forcing the lower bound to this level was used.
(§4) Representative compounds of the present invention were tested according to the procedure as described in Biological Example 4a and 4b above, with results as listed in Table BIO-4, below.

Assay [3] concerns LNCaP_Vancouver prostate cells. As to the kind of experiment: In Vitro LNCaP Vancouver Prostate Cell Proliferation Assay in Lipid Reduced Medium. Conditions: lipid reduced serum, 96 h, read-out: Vancouver Cells pIC50 (converted). As for the experimental part:
LNCaP_Vancouver prostate cells were obtained from the Vancouver Prostate Cancer Centre. Cells were maintained in RPMI-1640, 10% Fetal Calf Serum (FCS, Hyclone), 2 mM glutamine and 50 μg/ml Gentamicin.
For the proliferation experiment 1500 LNCaP_Vancouver cells per well were seeded in a 384-well black with clear bottom plate (costar 3712BC) in 40 μl RPMI-1640, 10% Lipid reduced serum (LRS, Hyclone), 50 μg/ml Gentamicin and 2 mM Glutamine and incubated at 37° C., 5% CO2. The next day 10 μl of test compound/DMSO diluted in medium was added (3E-5M, 1E-5M, 3E-6M, 1E-6M, 3E-7M, 1E-7M, 3E-8M, 1E-8M final concentration). Compounds were tested in duplicate. After 96 h incubation at 37° C., 5% CO2 25 μl ATP-glow mix was added. The plate was incubated for 30 min at 37° C. and luminescence was measured with the Envision.
as §1, §2, §3, §4

The subject of assay [4] is A2780 ovarian cells. As to the kind of experiment: A2780 Ovarian Cell Proliferation Assay in Lipid Reduced Medium, with Palmitate (control). The conditions noted are these: Homo sapiens. The method in brief: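 Read-out was MTT absorbance at 544 nm after 96 h at 37 °C. Cells grown overnight in RPMI1640/10% FCS were moved to 10% lipid-reduced serum with compound plus palmitate (final 25 μM, 0.2% fatty-acid-free BSA, 0.2% DMSO). IC50 came from least-squares curve fitting, expressed as −log(IC50).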

Where [5] appears, read: A2780, lipid reduced medium, without palmitate, 96 h, MTT, read-out: Proliferation A2780 w/o Palmitate pIC50 (converted).
Where [6] appears, read: A2780, lipid reduced medium, 25 μM palmitate, 96 h, MTT, read-out: Proliferation A2780 with Palmitate pIC50 (converted).

Turning to `CNc1ccc(C(=O)N2CCC(c3ccc(-c4cnn(C)c4)cc3)CC2)cc1NC(=O)c1ccc(NC(C)C)nc1` [Compound #279, 6-(isopropylamino)-N-(5-(4-(4-(1-methyl-1H-pyrazol-4-yl)phenyl)piperidine-1-carbonyl)-2-(methylamino)phenyl)nicotinamide], the IC50 with A2780 ovarian cells [1] (setting [5]) is 0.0417 µM; in assay [2] it was 0.0355 µM; in assay [3], 263 nM; with A2780 ovarian cells [4] (setting [6]), roughly 10 µM.
Consider `Cc1ccc(C(=O)N2CC(c3ccc(-c4cnn(C)c4)cc3)C2)cc1NC(=O)c1ccc(N(C)C(C)C)nc1` [Compound #78, 6-(isopropyl(methyl)amino)-N-(2-methyl-5-(3-(4-(1-methyl-1H-pyrazol-4-yl)phenyl)azetidine-1-carbonyl)phenyl)nicotinamide], for which the IC50 was roughly 0.0295 µM in the assay on A2780 ovarian cells [1] (setting [5]), roughly 0.00871 µM in assay [2], roughly 34.7 nM in assay [3] and roughly 15.1 µM in the assay with A2780 ovarian cells [4] (setting [6]).
With `COCCNc1ccc(C(=O)N2CCC(c3ccc(-c4cnn(C)c4)cc3)CC2)cc1NC(=O)c1ccc(NC(C)C)nc1` [Compound 282, 6-(isopropylamino)-N-(2-((2-methoxyethyl)amino)-5-(4-(4-(1-methyl-1H-Pyrazol-4-yl)phenyl)piperidine-1-carbonyl)phenyl)nicotinamide], the IC50 with A2780 ovarian cells [1] (setting [5]) is 0.209 µM; in assay [2] it was 0.17 µM; in assay [3] it was 1020 nM; in the assay with A2780 ovarian cells [4] (setting [6]) it was greater than 10 µM.
`CC(C)N(C)c1ccc(C(=O)N2CCC(c3ccc(-c4cnn(C)c4)cc3)CC2)cc1NC(=O)c1ccc(Cl)nc1` [Compound 274, 6-chloro-N-(2-(isopropyl(methyl)amino)-5-(4-(4-(1-methyl-1H-pyrazol-4-yl)phenyl)piperidine-1-carbonyl)phenyl)nicotinamide]: the IC50 in the assay on A2780 ovarian cells [1] (setting [5]) was roughly 0.302 µM; in assay [2] it was 0.776 µM; in assay [3] it was 1950 nM; in the assay on A2780 ovarian cells [4] (setting [6]), greater than 10 µM.
As for `COCCN(C)c1ccc(C(=O)N2CCC(c3ccc(-c4cnn(C)c4)cc3)CC2)cc1NC(=O)c1ccc(NC(C)C)nc1` [Compound 281, 6-(isopropylamino)-N-(2((2-methoxyethyl)(methyl)amino)-5-(4-(4-(1-methyl-1H-pyrazol-4-yl)phenyl)piperidine-1-carbonyl)phenyl)nicotinamide], the IC50 was 0.417 µM with A2780 ovarian cells [1] (setting [5]), roughly 0.776 µM in assay [2], roughly 1350 nM in assay [3] and roughly 6.31 µM with A2780 ovarian cells [4] (setting [6]).
On to `CC(C)Nc1ccc(C(=O)Nc2cc(C(=O)N3CCC(c4ccc(-c5cnn(C)c5)cc4)CC3)ccc2N(C)C2CC2)cn1` [Compound 287, N-(2-(cyclopropyl(methyl)amino)-5-(4-(4-(1-methyl-1H-pyrazol-4-yl)phenyl)piperidine-1-carbonyl)phenyl)-6-(isopropylamino)nicotinamide], for which the IC50 in the assay on A2780 ovarian cells [1] (setting [5]) was 0.676 µM; in assay [2], 0.186 µM; in assay [3], 977 nM; in the assay on A2780 ovarian cells [4] (setting [6]), greater than 10 µM.
Take `Cc1ccc(C(=O)N2CCC(c3ccc(-c4cnn(C)c4)cc3)CC2)cc1NC(=O)c1ccc(NC(C)C)nc1` [Compound #32, 6-(isopropylamino)-N-(2-methyl-5-(4-(4-(1-methyl-1H-pyrazol-4-yl)phenyl)piperidine-1-carbonyl)phenyl)nicotinamide]: the IC50 in the assay on A2780 ovarian cells [1] (A2780, 96 h, read-out: Proliferation A2780 w/o Palmitate pIC50 (μM) (converted)) is 0.0135 µM; in assay [2] it was 0.01 µM; in assay [3] it was 93.3 nM; in the assay with A2780 ovarian cells [4] (A2780, 96 h, read-out: Proliferation A2780 with Palmitate pIC50 (μM) (converted)) it was 7.24 µM.
As to `CC(C)Nc1ccc(C(=O)Nc2cc(C(=O)N3CCC(c4ccc(-c5cnn(C)c5)cc4)CC3)ccc2N(C)C(C)C)cn1` [Compound 276, N-(2-(isopropyl(methyl)amino)-5-(4-(4-(1-methyl-1H-pyrazol-4-yl)phenyl)piperidine-1-carbonyl)phenyl)-6-(isopropylamino)nicotinamide], the IC50 is roughly 0.257 µM in the assay with A2780 ovarian cells [1] (setting [5]), 0.49 µM in assay [2], 1380 nM in assay [3] and greater than 10 µM in the assay on A2780 ovarian cells [4] (setting [6]).
For the compound `CC(C)Nc1ccc(C(=O)Nc2cc(C(=O)N3CCC(c4ccc(-c5cnn(C)c5)cc4)CC3)ccc2NC(C)C)cn1` [Compound 284, 6-(isopropylamino)-N-(2-(isopropylamino)-5-(4-(4-(1-methyl-1H-pyrazol-4-yl)phenyl)piperidine-1-carbonyl)phenyl)nicotinamide], the IC50 was roughly 0.316 µM with A2780 ovarian cells [1] (setting [5]), 0.195 µM in assay [2], 1020 nM in assay [3] and greater than 10 µM in the assay with A2780 ovarian cells [4] (setting [6]).
For the compound `CC(C)Nc1ccc(C(=O)Nc2cc(C(=O)N3CCC(c4ccc(-c5cnn(C)c5)cc4)CC3)ccc2NC2CC2)cn1` [Compound 283, N-(2-(cyclopropylamino)-5-(4-(4-(1-methyl-1H-pyrazol-4-yl)phenyl)piperidine-1-carbonyl)phenyl)-6-(isopropylamino)nicotinamide], the IC50 in the assay with A2780 ovarian cells [1] (setting [5]) is 0.363 µM; in assay [2], 0.245 µM; in assay [3] it was 1050 nM; in the assay with A2780 ovarian cells [4] (setting [6]), greater than 10 µM.
On the same counts, the results for `CN(C)c1ccc(C(=O)N2CCC(c3ccc(-c4cnn(C)c4)cc3)CC2)cc1NC(=O)c1ccc(Cl)nc1` [Compound 275, 6-chloro-N-(2-(dimethylamino)-5-(4-(4-(1-methyl-1H-pyrazol-4-yl)phenyl)piperidine-1-carbonyl)phenyl)nicotinamide] are 0.1 µM, 0.12 µM, 692 nM and greater than 10 µM.
Taken in the same sequence, the figures for `COCCNc1ccc(C(=O)N2CCC(c3ccc(-c4cnn(C)c4)cc3)CC2)cc1NC(=O)C1CC1` [Compound 286, N-(2-((2-methoxyethyl)amino)-5-(4-(4-(1-methyl-1H-pyrazol-4-yl)phenyl)piperidine-1-carbonyl)phenyl)cyclopropanecarboxamide] were 0.427 µM, 1.82 µM, 4070 nM and greater than 10 µM.
In the case of `CC(C)Nc1ccc(C(=O)Nc2cc(C(=O)N3CCC(c4ccc(-c5cnn(C)c5)cc4)CC3)ccc2N)cn1` [Compound 285, N-(2-amino-5-(4-(4-(1-methyl-1H-pyrazol-4-yl)phenyl)piperidine-1-carbonyl)phenyl)-6-(isopropylamino)nicotinamide], the IC50 in the assay on A2780 ovarian cells [1] (setting [5]) was 0.0589 µM; in assay [2], 0.126 µM; in assay [3], roughly 537 nM; in the assay on A2780 ovarian cells [4] (setting [6]) it was 3.39 µM.
Turning to `Cc1ccc(C(=O)N2CC(c3ccc(-c4cnn(C)c4)cc3)C2)cc1NC(=O)c1ccc(N2CCOCC2)nc1` [Compound #66, N-(2-methyl-5-(3-(4-(1-methyl-1H-pyrazol-4-yl)phenyl)azetidine-1-carbonyl)phenyl)-6-morpholinonicotinamide], the IC50 in the assay with A2780 ovarian cells [1] (setting [5]) is roughly 0.0229 µM; in assay [2], roughly 0.00813 µM; in assay [3], 29.5 nM; with A2780 ovarian cells [4] (setting [6]) it was greater than 15.1 µM.
